Test results from US11517598B2 (priority 2016, dated 2022).

Tested on: cytokine, chemokine and IFN stimulated gene expression in 786-0 cells
Type: cell-based, human

In the case of Sodium orthovanadate, the “CXCL9 mRNA up-regulation” value is reported as “more than 100,000 fold”, the “IFNβ mRNA up-regulation” value is reported as “more than 10 fold” and the IFNγ expression is reported as “not up-regulated at any time-point post infection under any condition tested”. The “MX2 and IFITM1 mRNA” value was “robustly downregulated as early as 8 h post-infection”, the “expression of proinflammatory cytokines (CCL8, CCL3, IL6, TNF, IFNβ, CCL5) and type II IFN induced genes (CXCL9, CXCL10, CXCL11)” value was “increased expression of a number of proinflammatory cytokines” and the “genes typically induced by Type I IFN” value was “either unaffected or decreased”.
